Laboratory results published in patent publication US9005314B2, “Biphenyl benzyl ether marker compounds for liquid hydrocarbons and other fuels and oils” (Dow Global Technologies LLC, priority 2010, dated 2015).

Columns and labels:
[1] = Laundering stability/extractability of marker in xylene solution, GC analysis versus un-laundered reference; assay type: physicochemical; settings: 8 hours; for Marker: 95:5 marked xylenes:agent, relative to control = 100; for Change %: versus control
Procedure: (§1) The stability and extractability of a representative marker was performed using xylene solutions containing between 100-1000 ppm maker and an equivalent amount of squalene internal reference standard using the following protocols:
Mix 95 parts marked xylenes with 5 parts laundering agent in a 100 mL vial. Mix gently for 8 hours using a magnetic stir bar. Stop mixing and remove a xylene solution aliquot. Analyze by GC and compare marker response to reference (un-laundered) sample.
(§2) Laundering Agents: • 1) 5% sulfuric acid • 2) 98% sulfuric acid • 3) 5% NaOH solution • 4) 50% NaOH solution To test for metal adsorptivity, 100 mL marked xylene tests solution is treated with 5 grams metal shavings at room temperature for 8 hours. GC analysis is again used to determine any loss of marker to the metal surface.

[2] = Metal adsorptivity: marked xylene treated with metal shavings, GC analysis; assay type: physicochemical; settings: 100 mL marked xylene, 5 grams metal shavings, room temperature, 8 hours
Procedure: as §1, §2

c1ccc(OCc2ccc(-c3ccc(COc4ccccc4)cc3)cc2)cc1 [4,4′-bis(phenoxymethyl)-1,1′-biphenyl]
Marker ([1]; 5% H2SO4 laundering agent): 85.51 | Change % ([1]; 5% H2SO4 laundering agent): −14.49% | Marker ([1]; 5% NaOH laundering agent): 100.01 | Change % ([1]; 5% NaOH laundering agent): 0.01% | Marker ([1]; 50% NaOH laundering agent): 101.85 | Change % ([1]; 50% NaOH laundering agent): 1.85% | Marker ([1]; 98% H2SO4 laundering agent): 0.00 | Change % ([1]; 98% H2SO4 laundering agent): −100.00% | melting point: 176 °C | Change % [2]: +4% | Marker [2]: 104%

Cc1ccccc1OCc1ccc(-c2ccc(COc3ccccc3C)cc2)cc1 [4,4′-bis(2-methylphenoxymethyl)-1,1′-biphenyl]
melting point: 209 °C

Cc1ccc(OCc2ccc(-c3ccc(COc4ccc(C)cc4)cc3)cc2)cc1 [4,4′-bis(4-methylphenoxymethyl)-1,1′-biphenyl]
melting point: 206 °C

CC(C)(C)c1ccc(OCc2ccc(-c3ccc(COc4ccc(C(C)(C)C)cc4)cc3)cc2)cc1 [Example 4, 4,4′-bis(4-t-butylphenoxymethyl)-1,1′-biphenyl]
melting point: 218 °C
